What was measured:
[1] = system: BT20 cells; type: cell-based, human
Experimental: (§1) B. MDA-MD-468 cells were transduced with an IPTG inducible shEGFR targeted against the 3′ UTR of EGFR. These cells were incubated with IPTG for the indicated number of days and lysates were generated to confirm knock down of EGFR. C. In tandem with B., cells were plated and incubated +/−IPTG for 2 days prior to drug treatment. […] After 5 days of IPTG and 3 days of peptide treatment viability was measured using an MTT assay.
To investigate rt-EGFR, the role of the Sorting Nexins to regulate EGFR trafficking to the lysosome for degradation was investigated. To determine if SNX1 domains could be therapeutically mimicked, three SNX1-based peptides were synthesized, each of which was generated in tandem with a Cell Penetrating Peptide domain (PTD-4) to allow for intracellular penetration^19 (SNX1.1, 1.2 and 1.3, FIG. 2A). The ability of each peptide to reduce cell survival in the triple negative breast cancer cell line BT20 was evaluated.
(§2) EGFR activity is known to promote the activity of other RTKs, including those in the EGFR family (HER2, HER3 and HER4) and the c-Met receptor (Puri and Salgia 2008; Linklater et al. 2016). Therefore, the ability of SNX1.3 to inhibit 2D migration was next evaluated, both in response to EGF as well as other migration-inducing ligands. […] Cells were plated on plastic and allowed to migrate into an artificial wound over 12 hours. […] To determine if this inhibitory effect was restricted to EGF-induced migration, the ability of SNX1.3 to impact neuregulin (NRG1) was also tested and hepatic growth factor (HGF)-induced migration. NRG is the ligand for HER3 and HER4, and HGF the ligand for the c-Met receptor, both of which are receptor tyrosine kinases. In addition, soluble hyaluronic acid (HA)-induced migration, the ligand for CD44, was also tested [a non-kinase membrane receptor that induces migration (Louderbough, Lopez, and Schroeder 2010)]. […] Note that all receptors undergo endocytosis, with the RTKs primarily undergoing clathrin-dependent endocytosis, while CD44 endocytosis is clathrin-independent (Dutta and Donaldson 2015).

[2] = system: MDA-MB-468 cells; type: cell-based, human; conditions: MDA-MB-468, 3 days, MTT assay
Experimental: A. Peptide sequence alignment of modified and stabilized peptides (−) indicates conserved residues, (/) indicates a deleted residue. Modified residues used for staples are (S)-2-(((9H-flouren-9-yl) methoxy) caronylamino)-2-methyl-hept-6-enoic acid (5) and (R)-2-(((9H-flouren-9-yl) methoxy) caronylamino)-2-methyl-dec-9-enoic acid (8). PTD4=Protein Transduction Domain. Ac=acetylation of 5′ end and NH2=amidation of 3′ end. B. MDA-MB-468 cells were treated with 10 μM of the indicated peptide for 3 days. Cell viability was measured using an MTT assay. Vehicle control represents 100%. C. A predicted peptide structure of SNX1.3 was generated using SWISSMODEL with negative (blue) and positive (red) residues highlighted.
as §1
Predicted peptide structure including negatively (blue) and positively (red) charged residues was used to guide the modifications (FIG. 2C).

[3] = system: MCF10A cells; type: cell-based
[4] = system: WAP-TGFα tumors; assay: NanoString analysis of WAP-TGFα tumors (PanCancer IO 360 Panel); type: in vivo, mouse; conditions: WAP-TGFα tumors, found by NanoString
Experimental: (§3) A. Tumors (n=6 each treatment) from WAP-TGF mice as described in FIG. 1 were embedded and analyzed by NanoString. […] C. Tumors were dissected, lysed, and analyzed for apoptosis by probing for cleaved PARP and PDL1 expression.
C. WAP-TGFα tumors treated with either SNX1.3 or cPTD4 were analyzed for NK cells using an anti-NKp46 antibody. Inset is 20×.
(§4) Due to the increased leukocyte infiltration identified by histology of cSNX1.3-treated WAP-TGFα mice, NanoString analysis was performed using a panel that identifies alterations in immune regulators through localized analysis of transcript expression (PanCancer IO 360 Panel). […] These include several immune/inflammatory genes (such as CD2, TLR, CD28, H2-M3, Ly6C1, cytokines, and chemokines) as well as genes that could impact the metastatic potential of the microenvironment (including collagen 11A1 and MM P12). NanoString bioinformatics analysis further identified that these changes could be due to an increase in Cytotoxic T lymphocytes (CTLs) in cSNX1.3-treated samples compared to PTD4 (FIG. 8B). […] Therefore, tumor lysates were prepared and evaluated for apoptosis and a loss of the negative immune checkpoint receptor PDL1 (FIG. 8C). […] These changes could indicate an alteration from an immune-suppressive to an immune-surveilling microenvironment.

[5] = system: WAP-TGFα tumors; assay: Histology and protein lysate analysis of treated WAP-TGFα tumors; type: in vivo, mouse
Source text: Mice were bred continuously to induce transgene expression and palpated weekly for tumor formation. […] A. Changes in tumor size from entry into study until end of study are shown for each individual tumor, (*) indicate tumors that entered the study at size greater than 500 mm^3, all other tumors entered the study at ˜100 mm^3. B. a Kaplan-Meier survival curve was generated showing when mice were sacrificed by either reaching tumor burden (2000 mm^3) or the end of the study (p=0.0002). C. Upon sacrifice tumors were harvested and fixed in 10% formalin and embedded in paraffin. Slides were stained with hematoxylin and eosin and imaged at 20×. D. Protein lysates were generated from tumors upon sacrifice and probed for the indicated proteins.
as §3
At the end of the study, mice were sacrificed and tissues were collected and fixed in 10% buffered formalin or homogenized in tissue lysis buffer. Tissues were sectioned and evaluated for changes to tissue morphology in response to peptide treatment (FIG. 3C). […] Representative tumors from the PARP-cleavage positive (cSNX1.3-treated) and negative (cPTD4-treated) are shown (FIG. 3C).
as §4

[6] = system: BT20 cells; assay: 2D cell migration into an artificial wound, BT20 cells; type: cell-based, human
Experimental: Area migrated was measured with ImageJ.
as §2

Row | Molecule | inhibition of cell survival, compared with Sapitinib ([1]; BT20, 3 days, MTT assay) | inhibition of cell survival, compared with Sapitinib [2] | impact on normal immortalized cells [3] | secretion of IL33 [4] | infiltration of cytotoxic T lymphocytes and neutrophils in tumors ([5]; compared to control mice) | overall PDL1 expression in tumors ([5]; tumor lysates) | growth of BT20 cells ([1]; first screen of SNX1-based peptides) | impact on viability via MTT ([1]; in less than 24 hours, data not shown) | soluble hyaluronic acid (HA)-induced migration (CD44) ([6]; BT20, 12 hours, ligand for CD44) | neuregulin (NRG1) induced migration ([6]; BT20, 12 hours, ligand for HER3 and HER4) | hepatic growth factor (HGF)-induced migration ([6]; BT20, 12 hours, ligand for c-Met receptor) | EGF induced migration ([6]; BT20 on plastic, 12 hours)
1 | CNC(=O)CN1CCC(Oc2cc3c(Nc4cccc(Cl)c4F)ncnc3cc2OC)CC1 [Sapitinib, reference compound] | inhibited cell survival | inhibited cell survival | more effective at inhibiting cell growth in normal cells than in cancer cells |  |  |  |  |  |  |  |  | 
2 | YARAAARQARAKNHVIKYLETLLYSQQQLAKYWEAFL [SNX1.3] |  |  |  | induced | increased infiltration | decrease | inhibits the growth | no impact on viability | did not block | inhibited migration | inhibited migration | no migration was observed

Source: patent US20240166702A1, “COMPOSITIONS AND METHODS FOR TREATING BREAST CANCER” (Arizona Board of Regents on Behalf of The University of …, priority 2021, published 2024)
